Experimental data: patent US20080305559A1, “Non-Competitive Immunoassays to Detect Small Molecules” (priority 2005, published 2008)
Values joined by “and” are separate entries in the source; they are usually repeats but may differ in a detail not shown here. Equal values may be shown once. No end group written: not given here.

What was measured:
[1] = tested on: anti-PBA polyclonal antibodies; experiment: Cross-reactivity of the noncompetitive phage ELISA for PBA; type: binding, rabbit; conditions: for CR (%): % cross-reactivity=100×[SC50(PBA)/SC50(cross-reacting compound)]; for IC50: noncompetitive phage ELISA for PBA
Experimental: The specificity of the noncompetitive assay set up with the phage borne peptide was characterized by determining its cross-reactivity with structurally related pesticides. PBA concentrations in the 0-50 ng/ml range were used in the noncompetitive ELISAs. Data were normalized, and the molar compound concentration corresponding to the midpoint of the curve, (which corresponds to the concentration of analyte producing 50% saturation of the signal (SC50), was used to express the cross-reactivity of the assay according to the equation:
% cross−reactivity=100×[SC50(PBA)/SC50(cross−reacting compound)]

[2] = tested on: MoAb K4E7; conditions: atrazine; Cardozo et al. 2005; cited from earlier work
[3] = tested on: atrazine-MoAb K4E7 immunocomplex; experiment: Noncompetitive phage assay (PHAIA) for atrazine; type: binding; conditions: atrazine as analyte; MoAb K4E7 immobilized; phage borne peptides as tracers
Experimental: In this case, we used the MoAb K4E7 specific for atrazine. The conventional chemical hapten assay developed with this MoAb (see, e.g., Giersch, J Ag. Food Chem. 41: 1006-1011 (1993)) allows one to reach an IC50 of 0.5 ng/ml. We used the atrazine-MoAb K4E7 immunocomplex to select phage borne peptides that could be used to develop a noncompetitive assay. The protocols used for panning and assay set up were identical to those used for the molinate-MoAb 14D7 system described in Example 1 above. […] A short consensus sequence was identified: WFD. The consensus sequence can occur at position two or five of the random sequence. […]
Fifty μl per well of serial dilutions of molinate standard in PBST were dispensed into microtiter plates coated with MoAb 14D7, followed by the addition of 50 μl/well of the adequate dilution of the stabilized phage suspension. […] Absorbance values were fitted to a four-parameter logistic equation using the Genesis Lite 3.03 (Life Sciences (UK) Ltd.) package software. The lower detection limit (DL) of the assays was estimated as the analyte concentration corresponding to the absorbance equal to that of the zero standard plus three times its standard deviation).

[4] = tested on: MoAb K4E7; conditions: atrazine, Giersch 1993; cited from earlier work
[5] = tested on: MoAb 14D7; conditions: molinate, Rufo et al. 2004; cited from earlier work
[6] = tested on: MoAb 14D7; conditions: molinate; Cardozo et al. 2005; cited from earlier work
[7] = tested on: molinate-MoAb 14D7 immunocomplex; experiment: Noncompetitive phage ELISA (PHAIA) for molinate; type: binding; conditions: molinate as analyte, plates coated with MoAb 14D7, named phage borne peptide as tracer
From the text: In a similar way that the IC50 (the analyte concentration producing 50% inhibition) is used to denote the sensitivity of competitive methods, we refer to the concentration of analyte producing 50% saturation (SC50) in noncompetitive assays as a practical parameter to compare the sensitivity of our assays. […] For each of these clones, the assay conditions were optimized as described previously. […] These differences highlight the importance of the residues that flank the WDT consensus sequence of the selected peptides. This can be seen in the case of the S1 and S4 peptide sequences, which only differ in two amino acids and yield assays with SC50 of 5 and 32 ng/ml, respectively.
(§1) Nunc-Immuno™ Maxi-Sorp™ plates were coated with MoAb 14D7 or molinate-MoAb 14D7 immunocomplex as described previously. The wells were blocked with 5% skimmed milk PBS, and washed three times with PBST. One hundred μl/well of an overnight culture of individual amplified phage clones were dispensed into the wells. The microtiter plates where then incubated for 1 h at room temperature with gentle rocking. After washing three times with PBST, 100 μL of a 1/5000 dilution of horse radish peroxidase (HRP) labeled anti-M13 monoclonal antibody (Pharmacia, Uppsala) in PBST were added to each well. One hour later, the plates were thoroughly washed and 100 μl of peroxidase substrate (25 ml of 0.1 M citrate acetate buffer pH 5.5, 0.4 ml of 6 mg/ml DMSO solution of 3,3′,5,5′-tetramethylbenzidine, and 0.1 ml of 1% H2O2) were dispensed into each well. The enzymatic reaction was stopped after 15-20 min by the addition of 50 μl of 2 M H2SO4, and the absorbance at 450 nm (corrected at 600 nm) was read in a microtiter plate reader (Multiskan MS, Labsystems). The supernatants showing high readings in wells coated with the immunocomplex and low response in antibody coated wells were prepared as stabilized phage suspensions (see below), and use for further analysis. For checkerboard titration, 100 μl of variable concentrations of the antibody (0.3-2 μg/ml) were used for coating.
Fifty μl per well of serial dilutions of molinate standard in PBST were dispensed into microtiter plates coated with MoAb 14D7, followed by the addition of 50 μl/well of the adequate dilution of the stabilized phage suspension. The antibody concentration used for coating and the proper dilution of the phage suspension had been previously optimized by checkerboard experiments. After an hour incubation period at room temperature, the plates were washed and developed as previously described. Absorbance values were fitted to a four-parameter logistic equation using the Genesis Lite 3.03 (Life Sciences (UK) Ltd.) package software. The lower detection limit (DL) of the assays was estimated as the analyte concentration corresponding to the absorbance equal to that of the zero standard plus three times its standard deviation).

[8] = tested on: MoAb 14D7; experiment: Phage ELISA checkerboard titration: reactivity with the IC and the uncombined antibody; type: binding; conditions: wide range of MoAb 14D7 coating densities, absence of molinate
Experimental: as §1

Compound | CR (%) [1] [%] | IC50 [1] [µg/mL] | SC50 (concentration of analyte producing 50% saturation) [7] | also measured
O=C(O)c1ccc(O)cc1 [4-Hydroxybenzoic acid] | 0 | >0.1 |  | 
CC1(C)C(C=C(Cl)Cl)C1C(=O)OC(C#N)c1cccc(Oc2ccccc2)c1 (stereo not drawn) [Cypermethrin] | 0 | >0.1 |  | 
CC(C)C(C(=O)OC(C#N)c1cccc(Oc2ccccc2)c1)c1ccc(Cl)cc1 (stereo not drawn) [Esfenvalerate] | 0 | >0.1 |  | 
O=C(O)CNC(=O)c1cccc(Oc2ccccc2)c1 [PBA-glycine conjugate] | 0 | >0.1 |  | 
CC1(C)C(C=C(Cl)Cl)C1C(=O)OCc1cccc(Oc2ccccc2)c1 (stereo not drawn) [Permethrin] | 0 | >0.1 |  | 
CCNc1nc(Cl)nc(NC(C)C)n1 [atrazine] |  |  |  | IC50 of competitive assay set up with the same antibody [2]: 0.00064 ± 6e-05 µg/mL; SC50 [3]: 0.2 to 0.8 ng/mL; IC50 of conventional chemical hapten assay [4]: 0.0005 µg/mL
CCSC(=O)N1CCCCCC1 [molinate] |  |  |  | IC50 of competitive assay set up with heterologous chemical haptens [5]: 69 ng/ml and 69.2±1.4 ng/ml; IC50 of phage competitive assay [6]: 0.045 µg/mL
C N I W D T S G W C (CNIWDTSGWC; phage-displayed) [mH, phage clone from the mutagenesis library] |  |  | 27 ± 2.0 ng/mL | 
C N L W D T T G W C (CNLWDTTGWC; phage-displayed) [mF, phage clone from the mutagenesis library] |  |  | 11 ± 0.5 ng/mL | 
C N R W D T T G W C (CNRWDTTGWC; not fully specified (bridges); cysteine pairing not given here; also: phage-displayed on pVIII) [8M2] |  |  | 6.1 ± 0.3 ng/mL and 6.0 ± 0.3 ng/mL | 
C S I W D T T G W C (CSIWDTTGWC; phage-displayed) [mI12, phage clone from the mutagenesis library] |  |  | 8.1 ± 0.6 ng/mL | 
C S L W D T T G W C (CSLWDTTGWC; phage-displayed) [mA, phage clone from the mutagenesis library] |  |  | 8.5 ± 0.5 ng/mL | residual reactivity with the free (uncombined) antibody [8]: little reactivity with the free antibody
C S T W D T T G W C (CSTWDTTGWC; also: phage-displayed on pVIII, cyclic, bridge not given here) [1M] |  |  | 5.0 ± 0.4 ng/mL | SC50 (concentration of analyte producing 50% saturation) ([7]; listed as S1): 5 ng/mL
C S V W D T S G W C (CSVWDTSGWC; not fully specified (bridges); cysteine pairing not given here; also: phage-displayed) [10M2] |  |  | 32 ± 5 ng/mL and 32 ± 4.9 ng/mL | SC50 (concentration of analyte producing 50% saturation) ([7]; listed as S4): 32 ng/mL
C S Y W D T T G W C (CSYWDTTGWC; phage-displayed) [mG, phage clone from the mutagenesis library] |  |  | 16 ± 0.7 ng/mL | 
CTPVRWFDMC (phage-displayed) [13A] |  |  |  | SC50 [3]: 0.0511 ± 0.002 ng/mL
